Like-named read-outs stand apart in the source and are kept apart here.
What was measured:
HCT116 MTAP^−/− cells [1] = assay: Cell proliferation inhibition test (Cell-Titer Glo), HCT116 MTAP−/−; format: cell-based, human; conditions: Homo sapiens, HCT-116, 144 h, 6 days, read-out: HCT116 MTAP−/− Antiproliferative activity IC50
Method: (§1) Test Example 3. Cell Proliferation Inhibition Test of Human Colon Cancer HCT116 WT Cells and HCT116 MTAP-1-Cells
(§2) The brief introduction of the test principle: After the test MAT2A inhibitor was incubated with cancer cells for a period of time, the effect of the test compound on cell proliferation was measured using a cell proliferation count method based on the ATP content.
(§3) Reference: The experiment referred to the method disclosed in patent WO2018045071.
(§4) Material and cell: HCT116 WT cells and HCT116 MTAP^−/− cells were purchased from KYinno; fetal bovine serum, McCoy's 5a culture medium, and penicillin-streptomycin were purchased from Gibco Company (U.S.), 96-well plates were purchased from Corning Company (U.S.), and the Cell-Titer Glo reagent was purchased from Promega Company (U.S.).
(§5) Cell culture: HCT116 WT cells and HCT116 MTAP^−/− cells were cultured with a McCoy's 5a medium containing 10% fetal bovine serum+1% penicillin-streptomycin at 37° C. with 5% CO2.
(§6) Cells at logarithmic growth phase were available for the experiment.
(§7) Cell proliferation activity test: The Cell-Titer Glo reagent was used to test the compound for inhibitory activity on proliferation of both HCT116 WT and HCT116 MTAP^−/− cell strains. The cells were adjusted to a concentration of 400 cells per well, seeded on a 96-well plate, and incubated overnight at 37° C. with 5% CO2.
(§8) In the experimental group, the test compound was diluted sequentially with DMSO and a culture medium, and transferred to a cell plate at a final concentration of 10 μM, 3-fold dilution. The cells were continuously cultured at 37° C. with 5% CO2 for 6 days. The Cell-Titer Glo reagent was added and the cell activity was measured.
(§9) A negative control group and a positive control group were respectively used as Bottom and Top. The negative control group was not added with cells, only added with the culture medium in the same volume, and other operations were consistent with those of the experimental group. The positive control group was not added with the test compound, only added with DMSO in the same volume, and other operations were consistent with those of the experimental group.
(§10) The % Compound inhibition was calculated and fitted to give the IC50 of the compound.
(§11) % Compound inhibition=1-100%×(Signal−Bottom)/(Top−Bottom).
(§12) Signal referred to the signal value of the experimental group, Bottom referred to the average signal value of the negative control group, and Top referred to the average signal value of the positive control group.
(§13) HCT116 MTAP^−/− cells are cells not expressing MTAP protein obtained by site-directed knockout of wild type HCT116 (HCT116 WT) cells by gene knockout. Synthetic lethality will occur due to MAT2A inhibition and the deletion of MTAP, thereby causing tumor cell death. The activity and selectivity of the MAT2A inhibitor can be evaluated by testing the antiproliferative activity of the MAT2A inhibitor on human colon cancer HCT116 MTAP^−/− cells and human colon cancer HCT116 WT.

HCT116 MTAP^−/− cells [2] = assay: Determination of intracellular SAM level by LC-MS/MS; format: cell-based; conditions: Homo sapiens, HCT-116, 6 h, read-out: SAM production inhibitory activity IC50
Method: Test Example 2. Determination of Intracellular SAM Level
The brief introduction of the test principle: After the test MAT2A inhibitor was incubated with cancer cells for a period of time, the cells were lysed with a stop reagent to quench the activity of the MAT2A enzyme. The catalytic product SAM of MAT2A in the cell lysate was quantitatively determined by LC-MS/MS, and thus the activity of MAT2A in the cell was reflected.
as §3
Material and cell: HCT116 MTAP^−/− cells were purchased from KYinno; fetal bovine serum, McCoy's 5a culture medium, and penicillin-streptomycin were purchased from Gibco Company (U.S.), and 96-well plates were purchased from Corning Company (U.S.).
Cell culture: HCT116 MTAP^−/− cells were cultured with a McCoy's 5a medium containing 10% fetal bovine serum+1% penicillin-streptomycin at 37° C. with 5% CO2. Cells at logarithmic growth phase were available for the experiment.
LC-MS/MS detection: The effect of the compound on the SAM production level in HCT116 MTAP^−/− cell strains was detected by LC-MS/MS. The cells were adjusted to a concentration of 50000 cells per well, seeded on a 96-well plate, and incubated overnight at 37° C. with 5% CO2. In the experimental group, the test compound was dissolved in DMSO, diluted sequentially with DMSO and a culture medium, and transferred to a cell plate at a final concentration of 10 μM, 3-fold dilution. The cells were continuously cultured at 37° C. with 5% CO2 for 6 h. The supernatant was pipetted off. After the cells were washed once with PBS, glacial acetic acid was added to lyse the cells. After the lysate was processed, the SAM concentration was determined by LC-MS/MS analysis.
A negative control group and a positive control group were respectively used as Bottom and Top. The negative control group was added with 10 μM positive compound (compound 072 of Example 51 of patent WO2021139775A1) in the same volume, and other operations were consistent with those of the experimental group. The positive control group was not added with the test compound, only added with DMSO in the same volume, and other operations were consistent with those of the experimental group.
as §10
% Compound inhibition=1−100%×(Signal−Bottom)/(Top−Bottom)
as §12

HCT116 WT cells = assay: Cell proliferation inhibition test (Cell-Titer Glo), HCT116 WT; format: cell-based, human; conditions: Homo sapiens, HCT-116, 144 h, 6 days, read-out: HCT116 WT Antiproliferative activity IC50
Method: as §1, §2, §3, §4, §5, §6, §7, §8, §9, §10, §11, §12, §13

MAT2A = MAT2A (Homo sapiens (Human), UniProt P31153); assay: MAT2A biochemical test (inorganic phosphate colorimetric, PiColorLock); conditions: read-out: MAT2A inhibitory Activity IC50
MAT2A, sequence (P31153 whole entry): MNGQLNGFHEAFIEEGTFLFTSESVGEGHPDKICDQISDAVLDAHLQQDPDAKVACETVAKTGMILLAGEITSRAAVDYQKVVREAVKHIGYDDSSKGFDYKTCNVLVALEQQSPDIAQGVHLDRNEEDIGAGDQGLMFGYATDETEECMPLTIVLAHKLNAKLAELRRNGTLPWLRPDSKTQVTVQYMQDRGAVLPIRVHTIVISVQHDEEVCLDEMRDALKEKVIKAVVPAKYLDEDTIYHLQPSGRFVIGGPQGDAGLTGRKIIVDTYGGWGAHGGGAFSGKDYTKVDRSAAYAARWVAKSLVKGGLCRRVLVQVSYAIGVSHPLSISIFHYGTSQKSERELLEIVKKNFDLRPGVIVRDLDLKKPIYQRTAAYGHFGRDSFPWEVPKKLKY
Outline: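 Compounds tested from 10 μM top concentration in 3-fold dilutions, preincubated 120 min at room temperature with MAT2A ([…] final) in Tris/KCl/MgCl2/EDTA/BSA buffer. Reaction started with […] L-methionine and 400 μM ATP, run 90 min at room temperature; phosphate read by PiColorLock after 30 min. IC50 fitted from % inhibition versus no-enzyme and DMSO controls.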

Row | Compound | IC50 (HCT116 MTAP^−/− cells [1]) [nM] | IC50 (HCT116 MTAP^−/− cells [2]) [nM] | IC50 (HCT116 WT cells) [nM] | IC50 (MAT2A; class symbols) [nM] | IC50 (MAT2A; numeric values) [nM]
1 | Cc1ncccc1-n1c(=O)c2ncn(C)c2c2ccc(C(F)(F)F)nc21 (single isomer, unassigned) [Compound 20-P1, 1-methyl-5-(2-methylpyridin-3-yl)-7-(trifluoromethyl)-1,5-dihydro-4H-imidazo[4,5-c][1,8]naphthyridin-4-one] | 33 | 1.6 | 237 | < 100 | 20.5
2 | O=c1c2nc[nH]c2c2ccc(C(F)(F)F)nc2n1-c1ccccc1Cl [Compound 1, 5-(2-chlorophenyl)-7-(trifluoromethyl)-1,5-dihydro-4H-imidazo[4,5-c][1,8]naphthyridin-4-one] | 115 | 3.8 | 816 | < 100 | 31.9
3 | Cn1cnc2c(=O)n(-c3ccccc3Cl)c3nc(C(F)(F)F)ccc3c21 [Compound 2, 5-(2-chlorophenyl)-1-methyl-7-(trifluoromethyl)-1,5-dihydro-4H-imidazo[4,5-c][1,8]naphthyridin-4-one] | 529 | 7.4 | 4770 | < 100 | 69.3
4 | Cc1cccc(-n2c(=O)c3ncn(C)c3c3ccc(C(F)(F)F)nc32)c1Cl [Compound 36, 5-(2-chloro-3-methylphenyl)-1-methyl-7-(trifluoromethyl)-1,5-dihydro-4H-imidazo[4,5-c][1,8]naphthyridin-4-one] | 81.5 | 5.6 | 9970 | < 100 | 52.6
5 | Cn1cnc2c(=O)n(-c3cccc(Cl)c3Cl)c3nc(C(F)(F)F)ccc3c21 [Compound 37, 5-(2,3-dichlorophenyl)-1-methyl-7-(trifluoromethyl)-1,5-dihydro-4H-imidazo[4,5-c][1,8]naphthyridin-4-one] | 169 | 8.8 | 9060 | < 100 | 48.3
